Experimental data as given in patent US20040208919A1, “Vaccination against prion diseases” (priority 2002, published 2004).
Several values for one entry are separate records, joined by “and”; a condition that tells them apart may be missing. Identical values can stand only once.

System: primary rat hippocampal neurons
Type: cell-based

Sequence	Neuronal death, mode and dose dependence	Neurotoxicity compared with the other synthetic PrP fragments	Cell death %
KTNMKHMAGAAAAGAVVGGLG [PrP 106-126]	occurred by apoptosis in a dose dependent manner	most neurotoxic fragment	–
NGAKALMGGHGATKVMVGAAA [PrP 106-126 scrambled, reference compound]	–	–	3 ± 2% and 8 ± 3%
WGQGGGTHSQWNKPSKPK [PrP 89-106]	–	–	5 ± 2% and 2 ± 6%
WGQPHGGG [PrP 57-64]	–	–	0 ± 5% and 3 ± 4%
